Source: ChEMBL document CHEMBL4145521, “Regioselective synthesis of 3,4-diaryl-5-unsubstituted isoxazoles, analogues of natural cytostatic combretastatin A4” (Eur J Med Chem, 2018)

Columns and labels:
Assay type in all cases: functional
HOP-92 [1] = assay: Cytotoxicity against human HOP92 cells assessed as cell growth at 0.01 uM incubated for 48 hrs by sulforhodamine B assay relative to control; details: HOP-92, 48 h, read-out: Activity
Malme-3M [2] = assay: Cytotoxicity against human MALME-3M cells assessed as cell growth at 0.01 uM incubated for 48 hrs by sulforhodamine B assay relative to control; details: read-out: Activity
SK-MEL-5 = assay: Cytotoxicity against human SK-MEL-5 cells assessed as cell growth at 0.01 uM incubated for 48 hrs by sulforhodamine B assay relative to control; details: SK-MEL-5, 48 h, read-out: Activity
OVCAR-8 [3] = assay: Cytotoxicity against human OVCAR8 cells assessed as cell growth at 0.01 uM incubated for 48 hrs by sulforhodamine B assay relative to control; details: OVCAR-8, 48 h, read-out: Activity
TK-10 [4] = assay: Cytotoxicity against human TK10 cells assessed as cell growth at 0.01 uM incubated for 48 hrs by sulforhodamine B assay relative to control; details: TK-10, 48 h, read-out: Activity
RPMI-8226 = assay: Cytotoxicity against human RPMI8226 cells assessed as cell growth at 0.1 uM incubated for 48 hrs by sulforhodamine B assay relative to control; details: RPMI-8226, 48 h, read-out: Activity
SNB-75 = assay: Cytotoxicity against human SNB75 cells assessed as cell growth at 0.1 uM incubated for 48 hrs by sulforhodamine B assay relative to control; details: SNB-75, 48 h, read-out: Activity
Malme-3M [5] = assay: Cytotoxicity against human MALME-3M cells assessed as cell growth at 0.1 uM incubated for 48 hrs by sulforhodamine B assay relative to control; details: read-out: Activity
OVCAR-8 [6] = assay: Cytotoxicity against human OVCAR8 cells assessed as cell growth at 0.1 uM incubated for 48 hrs by sulforhodamine B assay relative to control; details: OVCAR-8, 48 h, read-out: Activity
TK-10 [7] = assay: Cytotoxicity against human TK10 cells assessed as cell growth at 0.1 uM incubated for 48 hrs by sulforhodamine B assay relative to control; details: TK-10, 48 h, read-out: Activity
UO-31 = assay: Cytotoxicity against human UO31 cells assessed as cell growth at 0.1 uM incubated for 48 hrs by sulforhodamine B assay relative to control; details: UO-31, 48 h, read-out: Activity
BT-549 [8] = assay: Cytotoxicity against human BT549 cells assessed as cell growth at 0.1 uM incubated for 48 hrs by sulforhodamine B assay relative to control; details: BT-549, 48 h, read-out: Activity
HOP-92 [9] = assay: Cytotoxicity against human HOP92 cells assessed as cell growth at 1 uM incubated for 48 hrs by sulforhodamine B assay relative to control; details: HOP-92, 48 h, read-out: Activity
NCI-H226 [10] = assay: Cytotoxicity against human NCI-H226 cells assessed as cell growth at 1 uM incubated for 48 hrs by sulforhodamine B assay relative to control; details: NCI-H226, 48 h, read-out: Activity
SK-OV-3 = assay: Cytotoxicity against human SKOV3 cells assessed as cell growth at 1 uM incubated for 48 hrs by sulforhodamine B assay relative to control; details: SK-OV-3, 48 h, read-out: Activity
MOLT-4 [11] = assay: Cytotoxicity against human MOLT4 cells assessed as cell growth at 10 uM incubated for 48 hrs by sulforhodamine B assay relative to control; details: MOLT-4, 48 h, read-out: Activity
NCI-H322M [12] = assay: Cytotoxicity against human NCI-H322M cells assessed as cell growth at 10 uM incubated for 48 hrs by sulforhodamine B assay relative to control; details: read-out: Activity
SF-295 = assay: Cytotoxicity against human SF295 cells assessed as cell growth at 10 uM incubated for 48 hrs by sulforhodamine B assay relative to control; details: SF-295, 48 h, read-out: Activity
MDA-MB-435 [13] = assay: Cytotoxicity against human MDA-MB-435 cells assessed as cell growth at 10 uM incubated for 48 hrs by sulforhodamine B assay relative to control; details: MDA-MB-435, 48 h, read-out: Activity
PC-3 = assay: Cytotoxicity against human PC3 cells assessed as cell growth at 10 uM incubated for 48 hrs by sulforhodamine B assay relative to control; details: PC-3, 48 h, read-out: Activity
HL-60(TB) = assay: Cytotoxicity against human HL-60(TB) cells assessed as cell growth at 100 uM incubated for 48 hrs by sulforhodamine B assay relative to control; details: HL-60, 48 h, read-out: Activity
MOLT-4 [14] = assay: Cytotoxicity against human MOLT4 cells assessed as cell growth at 100 uM incubated for 48 hrs by sulforhodamine B assay relative to control; details: MOLT-4, 48 h, read-out: Activity
NCI-H226 [15] = assay: Cytotoxicity against human NCI-H226 cells assessed as cell growth at 100 uM incubated for 48 hrs by sulforhodamine B assay relative to control; details: NCI-H226, 48 h, read-out: Activity
NCI-H322M [16] = assay: Cytotoxicity against human NCI-H322M cells assessed as cell growth at 100 uM incubated for 48 hrs by sulforhodamine B assay relative to control; details: read-out: Activity
BT-549 [17] = assay: Cytotoxicity against human BT549 cells assessed as cell growth at 100 uM incubated for 48 hrs by sulforhodamine B assay relative to control; details: BT-549, 48 h, read-out: Activity
NCI-H226 [18] = assay: Cytotoxicity against human NCI-H226 cells incubated for 48 hrs by sulforhodamine B assay; details: NCI-H226, 48 h
SW-620 = assay: Cytotoxicity against human SW620 cells incubated for 48 hrs by sulforhodamine B assay; details: SW-620, 48 h
MDA-MB-435 [19] = assay: Cytotoxicity against human MDA-MB-435 cells incubated for 48 hrs by sulforhodamine B assay; details: MDA-MB-435, 48 h
NCI/ADR-RES = assay: Cytotoxicity against human NCI/ADR-RES cells incubated for 48 hrs by sulforhodamine B assay
MDA-MB-231 = assay: Cytotoxicity against human MDA-MB-231 cells incubated for 48 hrs by sulforhodamine B assay; details: MDA-MB-231, 48 h
Hs-578T = assay: Cytotoxicity against human Hs 578T cells incubated for 48 hrs by sulforhodamine B assay
[20] = read-out: LC50 (the source's name)
[21] = read-out: pLC50 (the source's name) (converted)

COc1ccc(-c2nocc2-c2cc(OC)c(OC)c(OC)c2)cc1
growth at 0.01 µM (HOP-92 [1]): 98% | growth at 0.01 µM (Malme-3M [2]): 86% | growth at 0.01 µM (SK-MEL-5): 100% | growth at 0.01 µM (OVCAR-8 [3]): 103% | growth at 0.01 µM (TK-10 [4]): 90% | growth at 0.1 µM (RPMI-8226): 82% | growth at 0.1 µM (SNB-75): 47% | growth at 0.1 µM (Malme-3M [5]): 55% | growth at 0.1 µM (OVCAR-8 [6]): 74% | growth at 0.1 µM (TK-10 [7]): 46% | growth at 0.1 µM (UO-31): 70% | growth at 0.1 µM (BT-549 [8]): 56% | growth at 1 µM (HOP-92 [9]): 46% | growth at 1 µM (NCI-H226 [10]): 75% | growth at 1 µM (SK-OV-3): 38% | growth at 10 µM (MOLT-4 [11]): 26% | growth at 10 µM (NCI-H322M [12]): 35% | growth at 10 µM (SF-295): 5% | growth at 10 µM (MDA-MB-435 [13]): -29% | growth at 10 µM (PC-3): 22% | growth at 100 µM (HL-60(TB)): -15% | growth at 100 µM (MOLT-4 [14]): 5% | growth at 100 µM (NCI-H226 [15]): -20% | growth at 100 µM (NCI-H322M [16]): 18% | growth at 100 µM (BT-549 [17]): -24% | GI50 (NCI-H226 [18]; read-out: GI50): 15.5 µM | LC50 (NCI-H226 [18]; read-out: LC50): > 100 µM | TGI (NCI-H226 [18]; read-out: TGI): 58.3 µM | GI50 (NCI-H226 [18]; read-out: pGI50 (converted)): 15.5 µM | LC50 (NCI-H226 [18]; read-out: pLC50 (converted)): > 100 µM | TGI (NCI-H226 [18]; read-out: pTGI (converted)): 58.9 µM | GI50 (SW-620; read-out: GI50): 0.0509 µM | CC50 (SW-620; [20]): > 100 µM | TGI (SW-620; read-out: TGI): > 100 µM | GI50 (SW-620; read-out: pGI50 (converted)): 0.0513 µM | CC50 (SW-620; [21]): > 100 µM | TGI (SW-620; read-out: pTGI): > 100 µM | GI50 (MDA-MB-435 [19]; read-out: GI50): 0.0239 µM | CC50 (MDA-MB-435 [19]; [20]): > 100 µM | TGI (MDA-MB-435 [19]; read-out: TGI): 0.13 µM | GI50 (MDA-MB-435 [19]; read-out: pGI50 (converted)): 0.024 µM | CC50 (MDA-MB-435 [19]; [21]): > 100 µM | TGI (MDA-MB-435 [19]; read-out: pTGI (converted)): 0.129 µM | GI50 (NCI/ADR-RES; read-out: GI50): 0.0538 µM | LC50 (NCI/ADR-RES; read-out: LC50): > 100 µM | TGI (NCI/ADR-RES; read-out: TGI): 37.2 µM | GI50 (NCI/ADR-RES; read-out: pGI50 (converted)): 0.0537 µM | LC50 (NCI/ADR-RES; read-out: pLC50 (converted)): > 100 µM | TGI (NCI/ADR-RES; read-out: pTGI (converted)): 37.2 µM | GI50 (MDA-MB-231; read-out: GI50): 0.45 µM | CC50 (MDA-MB-231; [20]): > 100 µM | TGI (MDA-MB-231; read-out: TGI): 34.2 µM | GI50 (MDA-MB-231; read-out: pGI50 (converted)): 0.447 µM | CC50 (MDA-MB-231; [21]): > 100 µM | TGI (MDA-MB-231; read-out: pTGI (converted)): 33.9 µM | GI50 (Hs-578T; read-out: GI50): 0.396 µM | CC50 (Hs-578T; [20]): > 100 µM | TGI (Hs-578T; read-out: TGI): > 100 µM | GI50 (Hs-578T; read-out: pGI50 (converted)): 0.398 µM | CC50 (Hs-578T; [21]): > 100 µM | TGI (Hs-578T; read-out: pTGI): > 100 µM
